This note sets out measurements from paper PMC5602538, “Assessment of the Drug Interaction Potential of Unconjugated and GalNAc3-Conjugated 2′-MOE-ASOs” (Molecular Therapy. Nucleic Acids, 2017).

One data set concerns the target CYP2E1 (Homo sapiens, UniProt P05181). The data set can be described thus: CYP2E1 inhibition in cryopreserved human hepatocyte suspensions (chlorzoxazone probe).
For the next data set, the target named is T1, CYP2B6 (Homo sapiens, UniProt P20813).
T1 sequence (P20813 1-491): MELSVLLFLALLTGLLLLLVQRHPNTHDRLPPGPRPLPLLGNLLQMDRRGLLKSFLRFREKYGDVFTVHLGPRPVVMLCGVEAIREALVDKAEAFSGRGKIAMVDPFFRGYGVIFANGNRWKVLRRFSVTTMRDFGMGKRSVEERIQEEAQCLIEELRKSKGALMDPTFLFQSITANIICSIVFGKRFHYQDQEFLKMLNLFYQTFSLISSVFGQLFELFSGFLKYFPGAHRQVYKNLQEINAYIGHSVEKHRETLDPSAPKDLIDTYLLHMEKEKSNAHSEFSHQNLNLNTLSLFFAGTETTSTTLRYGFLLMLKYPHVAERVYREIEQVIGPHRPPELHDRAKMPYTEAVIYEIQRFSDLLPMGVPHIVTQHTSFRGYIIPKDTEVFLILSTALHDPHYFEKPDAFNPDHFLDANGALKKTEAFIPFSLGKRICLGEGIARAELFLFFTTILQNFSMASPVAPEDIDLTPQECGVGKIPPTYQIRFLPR
Kind of data set: biochemical.

A further data set deals with T2, P-gp.
T2 construct: host or cells: MDCK-MDR1 (MDCK cells stably transfected with MDR1)
Kind of data set: P-gp inhibition study in MDCK-MDR1 cells. It is filed as in vitro ADME. Particulars: human, probe [3H]-quinidine, 100 nM. Here is the method: MDCK-MDR1 cells and MDCK-II cells transfected with BCRP were washed with HBSS at 37°C. Wells of the culture plate served as the apical compartment, and 150 μL of HBSS solutions was added to the apical wells. These solutions also contain one of the following: vehicle (for probe substrate controls), 100 μM test article (for test article inhibition experiments), 1 μM Ko143 (for BCRP inhibition), or 3 μM elacridar (for P-gp inhibition). A 96-well receiver tray was prepared with each well containing 300 μL of buffer solution corresponding to the apical wells. Receiver tray wells served as the basal compartment. The plate and receiver tray were assembled and incubated at 37°C for 30 min. The solution was then aspirated from the apical compartment and the 96-well plate was removed from the receiver tray. […] These samples were counted on a 1450 Microbeta (PerkinElmer). For samples containing test articles, samples were quantitated using LC-MS.
Net basal (B) to apical (A) flux (B→A) of the substrate transport by BCRP and P-gp was calculated by subtracting (A→B) flux from (B→A) flux as: netB→Aflux(pmol/min/cm^2)=(B→A)flux-(A→B)flux.
Percent inhibition was calculated by dividing the net flux (B→A) in the presence of the test article or the reference inhibitor by the net flux (B→A) in the absence of the inhibitor as: %inhibition=100−(100×netfluxwithinhibitor/(meannetflux)withoutinhibitor).

Sequence of CYP2E1 (P05181 whole entry): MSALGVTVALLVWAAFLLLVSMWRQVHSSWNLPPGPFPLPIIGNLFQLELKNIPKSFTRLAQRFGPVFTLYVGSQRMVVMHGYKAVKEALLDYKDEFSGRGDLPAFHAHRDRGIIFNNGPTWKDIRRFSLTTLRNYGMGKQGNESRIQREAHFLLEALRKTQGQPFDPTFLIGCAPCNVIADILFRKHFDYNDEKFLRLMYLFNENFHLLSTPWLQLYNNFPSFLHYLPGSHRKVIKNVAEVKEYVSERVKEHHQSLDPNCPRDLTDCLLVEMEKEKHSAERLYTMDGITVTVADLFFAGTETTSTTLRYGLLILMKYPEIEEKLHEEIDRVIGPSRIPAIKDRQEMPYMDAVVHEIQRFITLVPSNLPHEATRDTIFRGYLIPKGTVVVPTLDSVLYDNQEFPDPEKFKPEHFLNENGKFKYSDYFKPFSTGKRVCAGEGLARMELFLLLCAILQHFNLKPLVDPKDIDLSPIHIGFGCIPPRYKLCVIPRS
Procedure for CYP2B6: (§1) Preincubations were performed in 50 μL of Williams’ Medium E with 2 mM salicylamide. The salicylamide was included to reduce possible phase II conjugation to the precursor phase I metabolites. […] Human hepatocytes (pooled from 5 donors) were thawed and prepared according to the vendor’s protocol. […] Incubations were carried out at 37°C with 5% CO2. The incubation time was 45 min for phenacetin, diclofenac, dextromethorphan, midazolam, bupropion, chlorzoxazone, and testosterone and 90 min for paclitaxel and (S)-mephenytoin. The reactions were stopped by adding 200 μL of ice-cold acetonitrile (can) with tolbutamide (100 ng/mL) as the internal standard to 100 μL of hepatocyte suspension (1:2, v/v). The 96-well plate was then vortexed at 1,700 rpm for 3 min and centrifuged at 3,500 rpm for 10 min at 20°C. The supernatants were analyzed using liquid chromatography-tandem MS (LC-MS/MS).
Procedure for CYP2E1: as §1

On to `Cc1ncsc1CCCl` [chlormethiazole], for which the IC50 – broadly, the concentration that inhibits the measured activity by half – against CYP2E1 worked out at 1.08 nM.

For the compound `COC(=O)[C@H](c1ccccc1Cl)N1CCc2sccc2C1` [clopidogrel], the IC50 against CYP2B6 came out at 163 nM.

Turning to `COc1cc2c(cc1OC)CN(CCc1ccc(NC(=O)c3cccc4c(=O)c5cccc(OC)c5[nH]c34)cc1)CC2` [elacridar], the inhibition (in general, the relative decrease from the control value, in per cent) at 90 min, 3 μM with P-gp worked out at 90.2 ± 1.42%.
